According to publication PMC4232785, “RP-HPTLC Retention Data in Correlation with the In-silico ADME Properties of a Series of s-triazine Derivatives” (Iranian Journal of Pharmaceutical Research : IJPR, 2014):

Test: RP-HPTLC retention (RM0, lipophilicity parameter) on RP-18W/UV254 plates
Type: physicochemical
Experimental: Precoated RP-18W/UV254 plates (Macherey-Nagel GmbH and Co., Düren, Germany) were used for RP HPTLC analysis. Investigated solvent mixtures used as mobile phases: acetone-water (φ = 0.5 - 0.8; v/v), acetonitrile-water (φ = 0.5 - 0.9; v/v), methanol-water (φ = 0.65 - 0.95; v/v), 2-propanol-water (φ = 0.4 - 0.7; v/v), tetrahydrofuran-water (φ = 0.5 - 0.75; v/v).
The investigated compounds were dissolved in an appropriate solvent, methanol, 1 mg mL^-1) and the solutions (0.2 μL) were separately spotted into the plates. All the reagents used were of analytical purity. The plates were developed by the ascending technique at room temperature without previous saturation of the chamber with mobile phase. All measurements were carried out at ambient temperature. After drying of the plates, the spots were visualized under UV light at λ = 254 nm. RF values were calculated as average from three measurements for each solute-mobile phase combination. For subsequent calculations mean RM values were used; these were calculated by using the formula:
Equation (1) RM=log(1/RF-1)
The calculated RM values for different concentrations of organic solvent were used to check the linearity of their relationship with the volume fraction of organic modifier according to the equation ([23]):
Where φ is the volume fraction of organic solvent in the mobile phase, RM^0 is the intercept obtained by extrapolation to φ = 0% of modifier, and S is the slope of the linear plot. Equations (1) and (2) served for deriving data for further QSAR studies.

[1] = RP-18W/UV254, 2-propanol – water (φ = 0.4 - 0.7)
[2] = RP-18W/UV254, acetone – water (φ = 0.5 - 0.8)
[3] = RP-18W/UV254, acetonitrile – water (φ = 0.5 - 0.9)
[4] = RP-18W/UV254, methanol – water (φ = 0.65 - 0.95)
[5] = RP-18W/UV254, tetrahydrofuran - water (φ = 0.5 - 0.75)

SMILES	RM^0 (retention parameter, intercept at φ = 0% modifier) [1]	RM^0 (retention parameter, intercept at φ = 0% modifier) [2]	RM^0 (retention parameter, intercept at φ = 0% modifier) [3]	RM^0 (retention parameter, intercept at φ = 0% modifier) [4]	RM^0 (retention parameter, intercept at φ = 0% modifier) [5]
CC(Nc1nc(Cl)nc(NC(C)c2ccccc2)n1)c1ccccc1 (centres unmarked) [I.1]	1.900	3.185	2.110	2.457	3.439
Cc1ccc(C(C)Nc2nc(Cl)nc(NC(C)c3ccc(C)cc3)n2)cc1 (centres unmarked) [I.2]	2.525	3.580	2.786	3.188	3.567
CC(Nc1nc(Cl)nc(NC(C)c2ccc(Cl)cc2)n1)c1ccc(Cl)cc1 (centres unmarked) [I.3]	2.617	3.839	2.887	3.976	3.538
CC(Nc1nc(Cl)nc(NC(C)c2ccc(Br)cc2)n1)c1ccc(Br)cc1 (centres unmarked) [I.4]	2.764	4.303	2.896	4.407	3.351
CC1(Nc2nc(Cl)nc(NC3(C)CCCC3)n2)CCCC1 [II.1]	2.183	3.743	2.388	3.181	3.289
CC1(Nc2nc(Cl)nc(NC3(C)CCCCC3)n2)CCCCC1 [II.2]	2.384	3.935	2.753	3.320	3.401
CC1(Nc2nc(Cl)nc(NC3(C)CCCCCC3)n2)CCCCCC1 [II.3]	3.013	4.218	3.000	4.530	4.071
Clc1nc(NC2CCCCC2)nc(NC2CCCCC2)n1 [III.1]	2.251	4.118	2.356	3.440	3.426
CN(c1nc(Cl)nc(N(C)C2CCCCC2)n1)C1CCCCC1 [III.2]	2.769	4.626	3.284	3.998	3.611
Clc1nc(NC2CCCCC2)nc(N(c2ccccc2)C2CCCCC2)n1 [III.3]	2.691	4.019	3.101	3.980	3.387
Clc1nc(N(c2ccccc2)C2CCCCC2)nc(N(c2ccccc2)C2CCCCC2)n1 [III.4]	2.747	4.693	3.556	5.295	3.902
CC1(Nc2nc(Cl)nc(Cl)n2)CCCC1 [IV.1]	1.118	1.672	1.497	1.526	1.733
CC1(Nc2nc(Cl)nc(Cl)n2)CCCCCC1 [IV.3]	1.779	2.257	1.956	1.756	2.222
